From patent US11753374B2, “Compounds for the treatment of acute and chronic kidney disease” (Southern Research Institute, priority 2020, dated 2023)

Tested on: heme oxygenase-1 (HO-1)
Experiment: High throughput screen: HO-1 promoter/enhancer luciferase reporter (pHOGL3/4.5+220) in stable HEK293 cells
Format: cell-based
Settings: Homo sapiens; for EC50: Table 1, evaluation of biaryl aminomaleimides, HO-1 induction; for Emax: Table 1, unit inferred, Emax as % of 5 μM hemin
Experimental: The generation of the pHOGL3/4.5+220 construct is described in Deshane, et al. (2010) “SpI regulates chromatin looping between an intronic enhancer and distal promoter of the human heme oxygenase-1 gene in renal cells” J Biol Chem 285(22): 16476-86. See also FIG. 1.
Briefly, BamHI sites were added to the 4.5-kb PCR product generated by long-range PCR from a bacterial artificial chromosome clone containing portions of chromosome 22 (accession no. Z82244), including the HO-1 gene. This fragment was cloned into the BglII restriction site of the multiple cloning region to make the parental clone (pHOGL3/4.5). The 220-bp intronic enhancer was amplified with SalI sites on either end and cloned into the SalI site of the vector to generate pHOGL3/4.5+220.
In order to generate cells that stably express luciferase expression vectors that lack a mammalian antibiotic selection cassette, HEK293 cells were co-transfected with either pHOGL3/4.5+220 (Deshane et al, 2010) or the Triple Mutant construct (Liby, Hock et al, 2005; Hock et al, 2007) and pcDNA3.1 Zeocin using Lipofectamine 2000. Cells were cultured in Zeocin (400 ug/ml; Invitrogen) for selection. Individual clones were sorted by flow cytometry and plated into a 96-well plate at a density of one cell per well. Clones were maintained and expanded in complete media (DMEM/10% FBS/1× antibiotic-antimycotic) supplemented with 100 ug/ml Zeocin, and incubated at 37° C. in 5% carbon dioxide. Incorporation of the Luciferase expression vectors was validated by assaying for luciferase.
A library of over 150,000 compounds, as well as a library of over 4,000 FDA approved compounds, were used in the HTS assay. […] This led to the identification of approximately 800 compounds that induce HO-1 and have desirable chemical structures. […] The In-Cell Western assay was optimized to screen for endogenous HO-1 in a high throughput platform, and results were validated by Western blot, real-time PCR, and enzyme activity assays. Additional RNA sequencing studies highlighted a role for the transcription factor Nrf2 and other targets in HO-1 induction by several small molecules.

Row | EC50 [µM] | SMILES | Emax [%]
1 | 36.1 | O=C1C=C(Nc2cc(F)c(O)c(F)c2)C(=O)N1c1cccc2ccccc12 [Compound 45] | 141
2 | 19.1 | COC(=O)c1ccc(N2C(=O)C=C(Nc3cc(F)c(O)c(F)c3)C2=O)cc1 [Compound 44] | 99.6
3 | 1.81 | O=C1C=C(Nc2ccc(O)cc2)C(=O)N1c1ccccc1 [Compound 2] | 38.1
4 | > 50 | O=C1C=C(Nc2cc(O)c(Cl)cc2F)C(=O)N1c1ccccc1 [Compound 19] | –
5 | > 50 | N#Cc1ccc(N2C(=O)C=C(Nc3cc(F)c(O)c(F)c3)C2=O)cc1 [Compound 40] | –
6 | 8.39 | COc1ccc(N2C(=O)C=C(Nc3cc(F)c(O)c(F)c3)C2=O)cc1C#N [Compound 56] | 36.1
7 | > 50 | COc1c(Cl)cccc1N1C(=O)C=C(Nc2cc(F)c(O)c(F)c2)C1=O [Compound 34] | 28.3
8 | 4.32 | O=C1C=C(Nc2cc(F)c(O)c(F)c2)C(=O)N1c1ccc(C(F)(F)F)cc1 [Compound 39] | 94.9
9 | 3.19 | O=C1C=C(Nc2cc(F)c(O)c(F)c2)C(=O)N1c1cccc(F)c1 [Compound 63] | 30
10 | 3.35 | CN(C)c1ccc(N2C(=O)C=C(Nc3cc(F)c(O)c(F)c3)C2=O)cc1 [Compound 53] | 94.1
11 | 14 | COc1cc(N2C(=O)C=C(Nc3cc(F)c(O)c(F)c3)C2=O)ccc1F [Compound 52] | 53.1
12 | 15.6 | COC(=O)c1cccc(N2C(=O)C=C(Nc3cc(F)c(O)c(F)c3)C2=O)c1 [Compound 65] | 42.8
13 | > 50 | O=C1C=C(Nc2cc(F)c(O)c(F)c2)C(=O)N1C1CC1 [Compound 68] | –
14 | 13.7 | O=C1C=C(Nc2cc(F)c(O)c(F)c2)C(=O)N1c1ccccc1F [Compound 48] | 82.9
15 | 8.37 | COc1c(F)cc(N2C(=O)C=C(Nc3cc(F)c(O)c(F)c3)C2=O)cc1F [Compound 49] | 69.6
16 | 1.73 | CC(C)(C)c1ccc(N2C(=O)C=C(Nc3cc(F)c(O)c(F)c3)C2=O)cc1 [Compound 58] | 53.3
17 | > 50 | O=C1C=C(Nc2cc(F)c(O)c(F)c2)C(=O)N1c1ccc(-c2ncco2)cc1 [Compound 42] | –
18 | 1.86 | O=C1C=C(Nc2ccc(O)c(F)c2)C(=O)N1c1ccccc1 [Compound 3] | 56.4
19 | 3.33 | O=C1C=C(Nc2cc(F)c(O)c(F)c2)C(=O)N1c1cccc(C(F)(F)F)c1 [Compound 64] | 23.9
20 | > 50 | O=C1C=C(Nc2ccc(O)c3ncccc23)C(=O)N1c1ccccc1 [Compound 13] | –

Row | EC50 [µM] | SMILES | Emax [%]
21 | 3.77 | O=C1C=C(Nc2cc(F)c(O)c(F)c2)C(=O)N1c1ccc(Oc2ccccc2)cc1 [Compound 61] | 33.4
22 | 1.78 | O=C1C=C(Nc2ccc(O)cc2F)C(=O)N1c1ccccc1 [Compound 4] | 38.9
23 | 2.08 | COc1cc(N2C(=O)C=C(Nc3cc(F)c(O)c(F)c3)C2=O)cc(OC)c1OC [Compound 33] | 28.4
24 | 2.29 | Cc1ccc(N2C(=O)C=C(Nc3cc(F)c(O)c(F)c3)C2=O)c(C)c1 [Compound 38] | 57
25 | 1.56 | Cc1ccc(N2C(=O)C=C(Nc3cc(F)c(O)c(F)c3)C2=O)cc1C [Compound 37] | 57.2
26 | 22.2 | O=C1C=C(Nc2cc(F)c(O)c(F)c2)C(=O)N1c1ccc(N2CCOCC2)cc1 [Compound 60] | 66.9
27 | > 50 | Nc1ccc(NC2=CC(=O)N(c3ccccc3)C2=O)cc1 [Compound 25] | –
28 | 2.75 | O=C1C=C(Nc2cc(F)c(O)c(F)c2)C(=O)N1c1ccc(-c2ccccc2)cc1 [Compound 62] | 34.6
29 | 2.1 | Cc1ccc(N2C(=O)C=C(Nc3cc(F)c(O)c(F)c3)C2=O)cc1 [Compound 35] | 96.8
30 | 16.9 | O=C1C=C(Nc2cc(F)c(O)c(F)c2)C(=O)N1c1cc(F)c(F)c(F)c1 [Compound 28] | 31.3
31 | > 50 | O=C1C=C(N2CCN(c3ccc(O)cc3)CC2)C(=O)N1c1ccccc1 [Compound 22] | –
32 | 1.74 | O=C1C=C(Nc2ccc(O)cc2Cl)C(=O)N1c1ccccc1 [Compound 6] | 20.4
33 | 16.7 | O=C1C=C(Nc2ccc(O)cc2)C(=O)N1c1cc(F)c(O)c(F)c1 [Compound 69] | 105
34 | 9.22 | O=C1C=C(Nc2cc(F)c(O)c(F)c2)C(=O)N1c1ccc(-c2cscn2)cc1 [Compound 59] | 43.9
35 | 0.43 | O=C1C=C(Nc2cc(F)c(O)c(F)c2)C(=O)N1CCc1ccccc1 [Compound 46] | 68.5
36 | > 50 | O=C1C=C(Nc2ccc(O)c(Cl)c2)C(=O)N1c1ccccc1 [Compound 7] | –
37 | 15.3 | O=C1C=C(Nc2cc(F)c(O)c(F)c2)C(=O)N1c1ccc(O)cc1 [Compound 50] | 75.2
38 | 2.27 | O=C1C=C(Nc2cc(F)c(O)c(F)c2)C(=O)N1c1ccc(OC(F)F)cc1 [Compound 55] | 93.3
39 | 20 | COc1ccccc1N1C(=O)C=C(Nc2cc(F)c(O)c(F)c2)C1=O [Compound 54] | 54.9

Second part, the molecule before the results:

Row | SMILES | EC50 [µM] | Emax [%]
40 | O=C1C=C(Nc2cc(Cl)c(Cl)cc2O)C(=O)N1c1ccccc1 [Compound 16] | > 50 | –
41 | COc1c(F)cc(NC2=CC(=O)N(c3ccccc3)C2=O)cc1F [Compound 23] | > 50 | –
42 | N#Cc1cccc(N2C(=O)C=C(Nc3cc(F)c(O)c(F)c3)C2=O)c1 [Compound 66] | > 50 | –
43 | O=C1C=C(Nc2cc(O)c(Cl)cc2Cl)C(=O)N1c1ccccc1 [Compound 20] | > 50 | –
44 | COc1ccc(N2C(=O)C=C(Nc3cc(F)c(O)c(F)c3)C2=O)cc1F [Compound 57] | 5.67 | 98.7
45 | O=C1C=C(Nc2cc(F)c(O)c(F)c2)C(=O)N1c1ccc(Cl)cc1 [Compound 29] | 3.34 | 110
46 | O=C1C=C(Nc2cc(F)c(O)cc2F)C(=O)N1c1ccccc1 [Compound 14] | 2.97 | 49.1
47 | O=C(O)c1ccc(NC2=CC(=O)N(c3ccccc3)C2=O)cc1 [Compound 24] | > 50 | –
48 | O=C1C=C(Nc2cc(F)c(O)c(F)c2)C(=O)N1c1ccc2c(c1)OCO2 [Compound 32] | 12.9 | 38.1
49 | O=C1C=C(Nc2cc(F)c(O)c(F)c2)C(=O)N1c1ccc(F)cc1 [Compound 26] | 4.21 | 80.7
50 | O=C1C=C(Nc2cc(F)c(O)c(F)c2)C(=O)N1C1CCCCC1 [Compound 67] | > 50 | 25.6
51 | O=C1C=C(Nc2ccccc2)C(=O)N1c1cc(F)c(O)c(F)c1 [Compound 70] | > 50 | –
52 | O=C1C=C(Nc2ccc(F)c(F)c2O)C(=O)N1c1ccccc1 [Compound 17] | 12 | 54.4
53 | O=C1C=C(Nc2cc(F)c(O)c(F)c2)C(=O)N1c1ccc(OC(F)(F)F)cc1 [Compound 31] | 2.31 | 64
54 | NC(=O)c1cccc(N2C(=O)C=C(Nc3cc(F)c(O)c(F)c3)C2=O)c1 [Compound 51] | 15.4 | 62.4
55 | O=C1C=C(Nc2cc(F)c(O)c(F)c2)C(=O)N1c1cc(F)cc(F)c1 [Compound 27] | > 50 | 72.6
56 | O=C1C=C(Nc2cc(F)c(O)c(F)c2)C(=O)N1c1ccccc1 [Compound 1, 3-(3,5-difluoro-4-hydroxy-anilino)-1-phenyl-pyrrole-2,5-dione] | 3.08 | 90.6
57 | O=C1C=C(Nc2ccc(O)c(F)c2F)C(=O)N1c1ccccc1 [Compound 8] | 5.49 | 41.7
58 | Cc1cc(NC2=CC(=O)N(c3ccccc3)C2=O)cc(C)c1O [Compound 12] | 7.55 | 39.3
59 | O=C1C=C(Nc2cc(F)c(O)c(F)c2)C(=O)N1Cc1ccccc1 [Compound 43] | 1.03 | 67.5
60 | CC(C)c1ccc(N2C(=O)C=C(Nc3cc(F)c(O)c(F)c3)C2=O)cc1 [Compound 36] | 0.89 | 52.5
61 | O=C1C=C(Nc2cc(F)c(O)c(F)c2)C(=O)N1c1ccc(N2CCCCC2)cc1 [Compound 41] | 11.5 | 70.4
62 | O=C1C=C(Nc2cc(F)c(O)c(F)c2)C(=O)N1c1ccccc1C(F)(F)F [Compound 47] | 19.7 | 91.1
63 | O=C1C=C(Nc2c(F)cc(O)cc2F)C(=O)N1c1ccccc1 [Compound 10] | > 50 | –
64 | O=C1C=C(Nc2ccc(O)c(C(F)(F)F)c2)C(=O)N1c1ccccc1 [Compound 11] | > 50 | –
65 | O=C1C=C(Nc2cc(F)cc(F)c2O)C(=O)N1c1ccccc1 [Compound 15] | > 50 | –
66 | O=C1C=C(Nc2cc(O)c(F)cc2F)C(=O)N1c1ccccc1 [Compound 18] | > 50 | –
